Assay results: patent publication US10010547B2 (CASCADIAN THERAPEUTICS, INC., priority 2014, dated 2018)
Structures can show the parent of a compound that is named as a salt. Where two headings read alike, the source gives them in different places.

Key:
MIA PaCa-2 cells = assay: Gemcitabine Combination Cell Assay (Cell Titer Glo); assay type: cell-based; settings: for IC50: Homo sapiens; for 10xLS: approximate concentration of Chk1 inhibitor that results in a 10-fold reduction in the IC50 of gemcitabine alone; for 2xLS: approximate concentration of Chk1 inhibitor that results in a two-fold reduction in the IC50 of gemcitabine alone
Method: Gemcitabine Combination Cell Assay
Exponentially growing MIA PaCa-2 (ATCC CRL-1420) cells are treated with trypsin to remove cells from the plate surface. Approximately 10,000 cells/well are plated in 96 well plates in RPMI containing 10% fetal bovine serum, 1% sodium pyruvate and 1% L-GlutaMax. Cells are allowed to adhere to the plate surface overnight. Serial half-log dilutions of Chk1 inhibitor test compounds and gemcitabine are made with a final highest concentration of 3000 nM and 100 nM, respectively. Chk1 inhibitors and gemcitabine are combined so that each concentration of Chk1 inhibitor is added to each concentration of gemcitabine. Each drug is also tested as a single agent. Drugs are added to adherent cells (in duplicate) and incubated for 72 h. At 72 h the cells are treated with Promega Cell Titer Glo reagent for approximately 15 minutes. Luminescence (relative light units, RLU) is recorded using a BMG Polarstar Omega plate reader. The single agent concentration that results in a 50% reduction in total signal (IC50) is calculated using PRISM software and a four-parameter non-linear regression curve fit. For combination studies the RLUs are plotted using PRISM on an XY plot with the gemcitabine concentration on the X axis and RLU on the Y axis. The RLU for each concentration of Chk1 inhibitor is plotted as a function of gemcitabine concentration. The IC50 for gemcitabine alone and at each concentration of Chk1 is determined using a four-parameter non-linear regression curve fit. The approximate concentration of Chk1 inhibitor that results in a two and ten-fold reduction in the IC50 of gemcitabine alone is calculated as an indication of synergistic potency.
From the results obtained by following the above protocol, the IC50 values against MIAPaca-2 cells of the Chk1 inhibitor alone (Chk1 IC50), the approximate concentration of Chk1 inhibitor that results in a two-fold (2×LS) and a 10-fold (10×LS) reduction in the IC50 of gemcitabine alone of each of the compounds of Examples 1-154 are shown in Table 4.

Chk-1 kinase = Chk-1 kinase (Homo sapiens (Human), UniProt O14757); assay: Chk-1 Kinase Inhibiting Activity (33P-ATP filter assay, CHKtide substrate); assay type: biochemical; settings: against Chk-1 kinase; read-out: IC50
Method: Chk-1 Kinase Inhibiting Activity
The compounds of the invention were tested for activity against Chk-1 kinase using the materials and protocols set out below.
Base Reaction buffer: 20 mM Hepes (pH 7.5), 10 mM MgCl2, 1 mM EGTA, 0.02% Brij35, 0.02 mg/ml BSA, 0.1 mM Na3VO4, 2 mM DTT, 1% DMSO
*Required cofactors are added individually to each kinase reaction
(i) Prepare indicated substrate in freshly prepared Base Reaction Buffer
(ii) Deliver any required cofactors to the substrate solution above
(iii) Deliver indicated kinase into the substrate solution and gently mix
(iv) Deliver compounds in DMSO into the kinase reaction mixture
(v) Deliver ^33P-ATP (specific activity 0.01 μCi/μl final) into the reaction mixture to initiate the reaction.
(vi) Incubate kinase reaction for 120 minutes at room temperature
(vii) Reactions are spotted onto P81 ion exchange paper (Whatman #3698-915)
(viii) Wash filters extensively in 0.1% phosphoric acid.
(ix) Dry filters and measure counts in scintillation counter
Recombinant full length construct, N-terminal GST tagged, purified from insect cells.
No special measures were taken to activate this kinase.
Final concentration in assay=0.5 nM
Peptide sequence: [[…]]
Final concentration in assay=20 μM
No additional cofactors are added to the reaction mixture
From the results obtained by following the above protocol, the IC50 values against Chk-1 kinase of each of the compounds of Examples 1-153 were determined and these are shown in Table 3.

[1] = Chk1 inhibitor alone, MIA PaCa-2 cells, 72 h, read-out: Chk1 IC50
[2] = MIA PaCa-2, 72 h, read-out: Chk1 IC50 (nM)

Sequence of Chk-1 kinase (O14757 whole entry): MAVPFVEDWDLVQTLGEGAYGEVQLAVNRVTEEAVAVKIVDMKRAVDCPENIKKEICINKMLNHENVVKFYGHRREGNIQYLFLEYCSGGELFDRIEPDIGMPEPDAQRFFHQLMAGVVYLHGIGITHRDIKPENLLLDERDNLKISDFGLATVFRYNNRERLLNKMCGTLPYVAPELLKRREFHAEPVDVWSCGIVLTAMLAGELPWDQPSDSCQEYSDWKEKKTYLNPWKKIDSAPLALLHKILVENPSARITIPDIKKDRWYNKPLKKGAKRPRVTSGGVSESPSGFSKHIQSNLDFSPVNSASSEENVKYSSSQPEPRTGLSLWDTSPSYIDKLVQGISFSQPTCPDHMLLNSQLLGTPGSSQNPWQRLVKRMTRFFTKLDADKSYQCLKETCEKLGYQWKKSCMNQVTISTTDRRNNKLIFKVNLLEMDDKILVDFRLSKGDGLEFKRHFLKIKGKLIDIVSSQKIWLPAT

| IC50 (MIA PaCa-2 cells; [1]) [nM] | IC50 (Chk-1 kinase) [nM] | SMILES | 10xLS (MIA PaCa-2 cells; MIA PaCa-2 cells, 72 h) [nM] | 2xLS (MIA PaCa-2 cells; MIA PaCa-2 cells, 72 h) [nM] | IC50 (MIA PaCa-2 cells; [2]) [nM] |
| --- | --- | --- | --- | --- | --- |
| 5390 | 2.8 | COc1cc(NCc2ccccc2)cc(OC)c1-c1cc(Nc2cnc(C#N)cn2)n[nH]1 [Example 1, 5-[5-(4-Benzylamino-2,6-dimethoxy-phenyl)-1H-pyrazol-3-ylamino]-pyrazine-2-carbonitrile] | 1000 | 100 |  |
| 1410 | 2.7 | COc1cc(NCc2ccccc2)ccc1-c1cc(Nc2cnc(C#N)cn2)n[nH]1 [Example 2, 5-[5-(4-benzylamino-2-methoxy-phenyl)-1H-pyrazol-3-ylamino]-pyrazine-2-carbonitrile] | 1000 | 100 |  |
|  | 2 | N#Cc1cnc(Nc2cc(-c3ccc(CNCc4ccccc4)cc3)[nH]n2)cn1 [Example 5, 5-{5-[4-(benzylamino-methyl)-phenyl]-1H-pyrazol-3-ylamino}-pyrazine-2-carbonitrile] |  |  |  |
| 338 | 0.097 | COc1cc(CN[C@@H](C)c2ccc(F)cc2)ccc1-c1cc(Nc2cnc(C#N)cn2)n[nH]1 [Example 6, 5-[5-(4-{[(S)-1-(4-fluoro-phenyl)-ethylamino]-methyl}-2-methoxy-phenyl)-1H-pyrazol-3-ylamino]-pyrazine-2-carbonitrile] | 300 | 30 |  |
| 208 | 0.1 | COc1cc(CN[C@H](C)c2ccc(F)cc2)ccc1-c1cc(Nc2cnc(C#N)cn2)n[nH]1 [Example 7, 5-[5-(4-{[(R)-1-(4-fluoro-phenyl)-ethylamino]-methyl}-2-methoxy-phenyl)-1H-pyrazol-3-ylamino]-pyrazine-2-carbonitrile] | ~200 | 10 |  |
| 259 | 0.058 | COc1cc(CNCc2ccc(F)cc2)ccc1-c1cc(Nc2cnc(C#N)cn2)n[nH]1 [Example 8, 5-(5-{4-[(4-fluoro-benzylamino)-methyl]-2-methoxy-phenyl}-1H-pyrazol-3-ylamino)-pyrazine-2-carbonitrile] | ~200 | 10 |  |
| 227 | 0.077 | COc1cc(CNCCN2CCOCC2)ccc1-c1cc(Nc2cnc(C#N)cn2)n[nH]1 [Example 9, 5-(5-{2-methoxy-4-[(2-morpholin-4-yl-ethylamino)-methyl]-phenyl}-1H-pyrazol-3-ylamino)-pyrazine-2-carbonitrile] | 100 | 3 |  |
| > 3000 |  | COc1cc(CNC(=O)C2CC2)ccc1-c1cc(Nc2cnc(C#N)cn2)n[nH]1 [Example 13, N-[[4-[3-[(5-cyanopyrazin-2-yl)amino]-1H-pyrazol-5-yl]-3-methoxy-phenyl]methyl]cyclopropanecarboxamide] | 300 | ~20 |  |
| 1110 |  | COc1cc(C2CCCCN2C)ccc1-c1cc(Nc2cnc(C#N)cn2)n[nH]1 (stereo not shown) [Example 41, 5-[[5-[2-methoxy-4-(1-methyl-2-piperidyl)phenyl]-1H-pyrazol-3-yl]amino]pyrazine-2-carbonitrile] | 300 | 30 |  |
|  | > 100 | COc1cc(C2CCNCC2)ccc1-c1cc(Nc2cnc(C(=O)O)cn2)n[nH]1 [Example 45, 5-[[5-[2-methoxy-4-(4-piperidyl)phenyl]-1H-pyrazol-3-yl]amino]pyrazine-2-carboxylic acid] |  |  |  |
| 2300 |  | COc1cc(OCc2cocn2)ccc1-c1cc(Nc2cnc(C#N)cn2)n[nH]1 [Example 105, 5-[[5-[2-methoxy-4-(oxazol-4-ylmethoxy)phenyl]-1H-pyrazol-3-yl]amino]pyrazine-2-carbonitrile] | 1000 | 30 |  |
| 687 |  | COc1cc([C@H]2CN(C)CCO2)ccc1-c1cc(Nc2cnc(C#N)cn2)n[nH]1 [Example 119, 5-[[5-[2-methoxy-4-[(2S)-4-methylmorpholin-2-yl]phenyl]-1H-pyrazol-3-yl]amino]pyrazine-2-carbonitrile] | <300 | 10 |  |
| 397 |  | CCN1CCO[C@@H](c2ccc(-c3cc(Nc4cnc(C#N)cn4)n[nH]3)c(OC)c2)C1 [Example 120, 5-[[5-[2-methoxy-4-[(2S)-4-ethylmorpholin-2-yl]phenyl]-1H-pyrazol-3-yl]amino]pyrazine-2-carbonitrile] | 100 | 3 |  |
|  |  | CCN1CCC[C@@H]1Cc1ccc(-c2cc(Nc3cnc(C#N)cn3)n[nH]2)c(OC)c1 [Example 149, 5-[[5-[4-[[(2R)-1-ethylpyrrolidin-2-yl]methyl]-2-methoxy-phenyl]-1H-pyrazol-3-yl]amino]pyrazine-2-carbonitrile hydrochloride] | 30 | <3 | 188 |
| 259 |  | COc1cc([C@H]2CN(C(C)C)CCO2)ccc1-c1cc(Nc2cnc(C#N)cn2)n[nH]1 [Example 150, 5-[[5-[4-[(2S)-4-isopropylmorpholin-2-yl]-2-methoxy-phenyl]-1H-pyrazol-3-yl]amino]pyrazine-2-carbonitrile] | 100 | 3 |  |
| 101 |  | COc1cc(C[C@H]2CCCN2C(C)C)ccc1-c1cc(Nc2cnc(C#N)cn2)n[nH]1 [Example 151, 5-[[5-[4-[[(2R)-1-isopropylpyrrolidin-2-yl]methyl]-2-methoxy-phenyl]-1H-pyrazol-3-yl]amino]pyrazine-2-carbonitrile] | <30 | <3 |  |
| 428 |  | CCN1CCC[C@H]1Cc1ccc(-c2cc(Nc3cnc(C#N)cn3)n[nH]2)c(OC)c1 [Example 152, 5-[[5-[4-[[(2S)-1-ethylpyrrolidin-2-yl]methyl]-2-methoxy-phenyl]-1H-pyrazol-3-yl]amino]pyrazine-2-carbonitrile] | 100 | 3 |  |
| 395 |  | COc1cc(C[C@@H]2CCCN2C(C)C)ccc1-c1cc(Nc2cnc(C#N)cn2)n[nH]1 [Example 154, 5-[[5-[4-[[(2S)-1-isopropylpyrrolidin-2-yl]methyl]-2-methoxy-phenyl]-1H-pyrazol-3-yl]amino]pyrazine-2-carbonitrile] | 100 | 3 |  |

| SMILES | IC50 (MIA PaCa-2 cells; [1]) [nM] | IC50 (Chk-1 kinase) [nM] | 10xLS (MIA PaCa-2 cells; MIA PaCa-2 cells, 72 h) [nM] | 2xLS (MIA PaCa-2 cells; MIA PaCa-2 cells, 72 h) [nM] | IC50 (MIA PaCa-2 cells; [2]) [nM] |
| --- | --- | --- | --- | --- | --- |
| COc1cc(CNCc2ccccc2)ccc1-c1cc(Nc2cnc(C#N)cn2)n[nH]1 [Example 3, 5-{5-[4-(Benzylamino-methyl)-2-methoxy-phenyl]-1H-pyrazol-3-ylamino}-pyrazine-2-carbonitrile hydrochloride] |  | 0.21 | 100 | 10 | 275 |
| COc1cc(CCNCc2ccccc2)ccc1-c1cc(Nc2cnc(C#N)cn2)n[nH]1 [Example 4, 5-{5-[4-(2-Benzylamino-ethyl)-2-methoxy-phenyl]-1H-pyrazol-3-ylamino}-pyrazine-2-carbonitrile hydrochloride] |  | 0.19 |  |  |  |
| COc1cc(CN2CC[C@H](OC)C2)ccc1-c1cc(Nc2cnc(C#N)cn2)n[nH]1 [Example 124, 5-[[5-[2-methoxy-4-[[(3S)-3-methoxypyrrolidin-1-yl]methyl]phenyl]-1H-pyrazol-3-yl]amino]pyrazine-2-carbonitrile] | 322 |  | <300 | 3 |  |
| COc1cc(CN2CC[C@@H](OC)C2)ccc1-c1cc(Nc2cnc(C#N)cn2)n[nH]1 [Example 125, 5-[[5-[2-methoxy-4-[[(3R)-3-methoxypyrrolidin-1-yl]methyl]phenyl]-1H-pyrazol-3-yl]amino]pyrazine-2-carbonitrile] | 550 |  | <300 | 10 |  |
